Laboratory results published in patent publication US8829014B2, “Thiazole and thiophene analogues, and their use in treating autoimmune diseases and cancers” (Board of Supervisors of Louisiana State University and …, priority 2006, dated 2014).

Assays:
carageenan-induced edema = experiment: Carrageenan-induced rat paw edema test (anti-inflammatory activity); type: in vivo, Sprague-Dawley rats
How it was run: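 Edema was raised by sub-plantar injection of 1% carrageenan into the right hind paw, 1 h after dosing 18 h-fasted male/female Sprague-Dawley rats (150-250 g) with 50 mg/kg p.o. in 0.1% CMC. Swelling was measured by displacement 3 h later and expressed as % protection against saline control.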

NF-κB = experiment: TNF-α-induced NF-κB-dependent luciferase expression in HEK cells; type: cell-based; settings: luciferase in HEK/NF-κB cells, as described in Example 398; for inhibition at 1 µM: Homo sapiens, HEK293, 1 uM, read-out: NFkB inhibition @ 1 uM
AP-1 = experiment: PMA-induced AP-1 luciferase expression in HEK cells; type: cell-based; settings: luciferase in HEK/AP-1 cells, as described in Example 398; for inhibition at 1 µM: AP1, 1 uM
[1] = Rattus norvegicus, po, 3 h, rat paw edema, 50 mg/kg, reading 3 hours after carrageenan; [(Control−Test)/Control]×100%; read-out: % Protection P
[2] = rat paw edema, 50 mg/kg, reading 3 hours after carrageenan; [(Control−Test)/Control]×100%

Row | Molecule | inhibition in vivo at 50 mg/kg (carageenan-induced edema; [1]) [%] | inhibition at 1 µM (NF-κB) [%] | inhibition at 1 µM (AP-1) [%] | % Protection P (carageenan-induced edema; [2]) [%] | NFkB inhibition @ 1 uM (NF-κB) | AP-1 inhibition @ 1 uM (AP-1) | % Protection P (carageenan-induced edema; rat paw edema, 50 mg/kg, reading 3 hours after carrageenan; [(Control−Test)/Control]×100%; 50 mg/kg) [%]
1 | Cc1nc(Nc2ccc(Cl)cc2)sc1C(=O)c1sc(Nc2ccc(Cl)cc2)nc1C [Example 120, Bis-[2-(4-Chloro-phenylamino)-4-methyl-thiazole-5-yl]-methanone] | 64.6 | 20.3 | 76.2 |  |  |  | 
2 | 4-{3-(4-Methanesulfonyl-phenyl)-5-[5-methyl-5-(2,2,2-trifluoro-ethoxy)-pyridine-2-yl]-thiophene-2-yl}-morpholine [Example 53] |  |  |  | 2.08 | −2.17 | 25.04 | 
3 | CS(=O)(=O)c1ccc(C(=O)c2sc(N3CCN(C(=O)c4ccco4)CC3)nc2-c2ccccc2)cc1 [Example 385, {2-[4-(Furan-2-carbonyl)-piperazin-1-yl]-4-phenyl-thiazol-5-yl}-(4-methanesulfonyl-phenyl)-methanone] | 67 | -15.1 | 6.44 |  |  |  | 
4 | O=c1c2ccccc2nc(-c2cc(-c3ccncc3)c(N3CCOCC3)s2)n1-c1ccccc1Cl [Example 308, 3-(2-Chloro-phenyl)-2-(5-morpholin-4-yl-4-pyridin-4-yl-thiophen-2-yl)-3H-quinazolin-4-one] | 43 | 80 | 35 |  |  |  | 
5 | O=C(c1cccnc1)c1sc(N2CCN(C(=O)c3ccco3)CC2)nc1-c1ccccc1 [Example 386, {2-[4-(Furan-2-carbonyl)-piperazin-1-yl]-4-phenyl-thiazol-5-yl}-pyridin-3-yl-methanone] | 23 | 52.8 | 22.5 |  |  |  | 
6 | CC(=O)c1ccc(-n2c(-c3cc(-c4ccc(S(C)(=O)=O)cc4)c(N4CCOCC4)s3)nc3ccccc3c2=O)cc1 [Example 317, 2-[4-(4-Methanesulphonyl-phenyl)-5-morpholin-4-yl-thiophen-2-yl]-3-(4-acetyl-phenyl)-3H-quinazolin-4-one] | 73 | 46 | 31 |  |  |  | 
7 | CC(=O)Nc1ccc(C(=O)c2cc(-c3ccc(NC(C)=O)cc3)c(N3CCOCC3)s2)cc1 [Example 73, N-{4-[5-(4-acetylamino-benzoyl)-2-morpholin-4-yl-thiophene-3-yl]-phenyl}-acetamide] | -23.5 | -28.6 | 19.9 |  |  |  | 
8 | CC(=O)Nc1ccc(-c2cc(-c3nc4ccccc4c(=O)n3-c3ccc(Cl)cc3)sc2N2CCOCC2)cc1 [Example 311] |  |  |  | 28 | 0 | 17 | 
9 | Nc1nc(Nc2ccc(Cl)cc2)sc1C(=O)c1cccnc1 [Example 338, (4-Amino-2-(4-chlorophenylamino)-thiazol-5-yl)-pyridin-3-yl-methanone] | 25.8 | -84.1 | -89.1 |  |  |  | 
10 | COc1ccc(Nc2nc(N)c(C(=O)c3cccnc3)s2)cc1 [Example 349, ([4-Amino-2-(4-methoxy-phenylamino)-thiazol-5-yl]-pyridin-3-yl-methanone)] | 18.2 | -35.9 | 51.5 |  |  |  | 
11 | Cc1c(OCC(F)(F)F)ccnc1-c1sc(Nc2ccccc2)nc1N [Example 331, 5-[3-Methyl-4-(2,2,2-trifluoro-ethoxy)-pyridin-2-yl]-N2-phenyl-thiazole-2,4-diamine] | 62.3 | -10.6 | 27.4 |  |  |  | 
12 | CNc1nc(C)c(C(=O)c2sc(NC)nc2C)s1 [Example 118, Bis-(4-methyl-2-methylamino-thiazole-5-yl)-methanone] | 40.9 | 8.84 | 33.4 |  |  |  | 
13 | Cc1ccc(Nc2nc(-c3ccccc3)c(C(=O)c3sc(Nc4ccc(C)cc4)nc3-c3ccccc3)s2)cc1 [Example 394, Bis-[2-(4-methyl-phenylamino)-4-phenyl-thiazol-5-yl]-methanone] | 56 | 18.7 | 41.9 |  |  |  | 
14 | COc1ccccc1-n1c(-c2cc(-c3ccc(S(C)(=O)=O)cc3)c(N3CCOCC3)s2)nc2ccccc2c1=O [Example 297, 2-[4-(4-Methanesulphonyl-phenyl)-5-morpholin-4-yl-thiophen-2-yl]-3-(2-methoxy-phenyl)-3H-quinazolin-4-one] | 63 | 55 | 33 |  |  |  | 
15 | COc1c(C)cc(-c2cc(-c3ccc(S(C)(=O)=O)cc3)c(N3CCOCC3)s2)nc1C [Example 52, 4-[3-(4-Methanesulfonyl-phenyl)-5-(5-methoxy-4,6-dimethyl-pyridine-2-yl)-thiophene-2-yl]-morpholine] | 61.1 | 5.81 | -7.93 |  |  |  | 
16 | COc1ccc(C(=O)c2sc(Nc3ccccc3)nc2NC(=O)Nc2ccc(F)cc2)cc1 [Example 117, 1-(4-Fluoro-phenyl)-3-[5-(4-methoxy-benzoyl)-2-phenylamino-thiazol-4-yl]-urea] |  | 22.1 | 51 |  |  |  | 58.62
17 | Nc1nc(Nc2ccc(Cl)cc2)sc1C(=O)c1ccccn1 [Example 340, [4-Amino-2-(4-chloro-phenylamino)-thiazol-5-yl]-pyridin-2-yl-methanone] | 34 | -18.2 | 57.3 |  |  |  | 
18 | CC(=O)c1ccc(-n2c(-c3cc(-c4ccccc4)c(N4CCOCC4)s3)nc3ccccc3c2=O)cc1 [Example 314] |  |  |  | 36 | 0 | 25 | 
19 | CCOC(=O)Nc1nc(C)c(C(=O)c2sc(NC(=O)OCC)nc2C)s1 [Example 124, Diethyl[carbonyl-bis(4-methyl-1,3-thiazole-5,2-diyl)]biscarbamate] | 65.7 | 20.1 | 71.6 |  |  |  | 
20 | Cc1c(OCC(F)(F)F)ccnc1-c1sc(N2CCN(C(=O)c3ccco3)CC2)nc1-c1ccccc1 [Example 389, Furan-2-yl-(4-{5-[3-methyl-4-(2,2,2-trifluoro-ethoxy)-pyridin-2-yl]-4-phenyl-thiazol-2-yl}-piperazin-1-yl)-methanone] | 61.6 | 30.7 | 42.5 |  |  |  | 
21 | CC(=O)c1ccc(-n2c(-c3cc(-c4ccncc4)c(N4CCOCC4)s3)nc3ccccc3c2=O)cc1 [Example 319, 3-(4-acetyl-phenyl)-2-(5-morpholin-4-yl-4-pyridin-4-yl-thiophen-2-yl)-3Hquinazolin-4-one] | 81 | 66 | 84 |  |  |  | 
22 | O=C(c1cc(-c2ccc(Cl)cc2)c(N2CCOCC2)s1)c1ccc(Cl)cc1Cl [Example 82, [4-(4-Chloro-phenyl)-5-morpholin-4-yl-thiophen-2-yl]-(2,4-dichloro-phenyl)-methanone] | 22.8 | 0.6 | 34.3 |  |  |  | 
23 | CCOC(=O)Nc1nc(Cc2ccccc2)c(C(=O)c2sc(NC(=O)OCC)nc2Cc2ccccc2)s1 [Example 138, Diethyl[carbonyl-bis(4-benzyl-1,3-thiazole-5,2-diyl)]biscarbamate] | 88.9 | 55.6 | 83.6 |  |  |  | 
